Key:
[1] = tested on: PDX2 (ARID1A medium); experiment: Pre-clinical trial of patient derived xenograft treated with HHT; assay type: in vivo, mouse; details: ARID1A medium model; HHT 0.7 mg/kg twice daily by oral gavage
From the text: (§1) Arid1a^LoxP/LoxP (Jackson Laboratory), ROSA-LSL-Yfp^KI/KI (Jackson Laboratory), and UBC-Cre^ERT2 (Jackson Laboratory). eEF2K^−/− animals were kindly provided by Alexey G. Ryazanov (Rutgers University). UBC-Cre^ERT2;ROSA-LSL-Yfp^KI/KI;Arid1a^LoxP/LoxP animals (mixed background) were bred to Eef2k^−/− animals (C57BL/6) for one generation to produce progeny heterozygous at all loci (ROSA-LSL-Yfp^KI/+;Arid1a^LoxP/+; eEF2K^+/−) with or without UBC-Cre^ERT2. Heterozygous animals without UBC-Cre^ERT2 were backcrossed once more to ROSA-LSL-Yfp^KI/KI;Arid1a^LoxP/LoxP animals to reintroduce homozygosity at the ARID1A and ROSA-LSL-Yfp, while maintaining heterozygosity at the Eef2k locus (ROSA-LSL-Yfp^KI/KI; Arid1a^LoxP/LoxP; Eef2K^+/−; with and without UBC-Cre^ERT2). […] For survival studies, the body weight of the mouse was recorded and monitored every two days for the duration of the survival trial.
(§2) Tumor pieces (1×1×1 mm) were implanted into the flank of 4-6 weeks old NOD-SCID γ IL-2 mice. Xenografts were measured every 2 days and tumor volume was calculated using the formula (L×W×W)/2, where L is the length of the tumor and W its width. […]

[2] = tested on: PDX1 (ARID1A low); experiment: as above; assay type: in vivo, mouse; details: ARID1A low model; HHT 0.7 mg/kg twice daily by oral gavage
From the text: as §1, §2

COC(=O)C[C@](O)(CCCC(C)(C)O)C(=O)O[C@@H]1C(OC)=C[C@]23CCCN2CCc2cc4c(cc2[C@H]13)OCO4 [HHT, homoharringtonine]
decrease in tumor growth [1]: 35.9%
decrease in tumor growth [2]: 59.3%
